Measured values reported in ChEMBL document CHEMBL5506065, “Discovery of Novel Non-Nucleoside Inhibitors Interacting with Dizinc Ions of CD73” (J Med Chem, 2024).
The source made the active and inactive calls. The rule behind the calls is not given here.

Key:
[1] = Inhibition of CD73 in human MDA-MB-231 cells using AMP substrate measured after 60 mins by cell based - malachite green phosphate assay; settings: MDA-MB-231, 1 h
[2] = Inhibition of recombinant human CD73 expressed in Escherichia coli using AMP as substrate measured after 60 mins by malachite green method
[3] = Cmax in male Sprague-Dawley rat at 10 mg/kg, po; assay type: ADME, organism-based; settings: in vivo
[4] = Clearance in male Sprague-Dawley rat at 10 mg/kg, po; assay type: ADME, organism-based; settings: in vivo
[5] = Tmax in male Sprague-Dawley rat at 1 mg/kg, iv; assay type: ADME, organism-based; settings: in vivo
[6] = Half life in male Sprague-Dawley rat at 1 mg/kg, iv; assay type: ADME, organism-based; settings: in vivo
[7] = AUC (0 to t) in male Sprague-Dawley rat at 1 mg/kg, iv; assay type: ADME, organism-based; settings: in vivo
[8] = Tmax in male Sprague-Dawley rat at 10 mg/kg, po; assay type: ADME, organism-based; settings: in vivo
[9] = Clearance in male Sprague-Dawley rat at 1 mg/kg, iv; assay type: ADME, organism-based; settings: in vivo
[10] = AUC (0 to t) in male Sprague-Dawley rat at 10 mg/kg, po; assay type: ADME, organism-based; settings: in vivo
[11] = Half life in male Sprague-Dawley rat at 10 mg/kg, po; assay type: ADME, organism-based; settings: in vivo
[12] = Cmax in male Sprague-Dawley rat at 1 mg/kg, iv; assay type: ADME, organism-based; settings: in vivo
E.G7-OVA [13] = experiment: In vivo antitumor activity against mouse E.G7-OVA T cell lymphoma subcutaneously injected in syngeneic C57/BL6 mouse model assessed as tumor growth inhibition at 2.5 mg/kg, iv qw (tail vein) measured after 16 days; assay type: functional; settings: 384 h, time 16 day, read-out: TGI
[14] = Half life in male Sprague-Dawley rat; assay type: ADME; settings: in vivo
E.G7-OVA [15] = experiment: (§1) In vivo antitumor immunity against mouse E.G7-OVA T cell lymphoma subcutaneously injected in syngeneic C57/BL6 mouse model assessed as tumor-infiltrating lymphocyte by measuring increase in CD8 positive T cell in total CD45 positive cells in presence of doxorubicin at 1 mg/kg, iv qd (tail vein) measured after 16 days by flow cytometry; assay type: functional, organism-based; settings: time 16.0 day
E.G7-OVA [16] = experiment: as §1, with “positive/Treg ratio” for “positive T cell in total CD45 positive cells”; assay type: functional, organism-based; settings: time 16.0 day
E.G7-OVA [17] = experiment: In vivo antitumor immunity against mouse E.G7-OVA T cell lymphoma subcutaneously injected in syngeneic C57/BL6 mouse model assessed as tumor-infiltrating lymphocyte by measuring increase in CD8 positive/Treg ratio at 1 mg/kg, iv qd (tail vein) measured after 16 days by flow cytometry; assay type: functional, organism-based; settings: time 16.0 day
E.G7-OVA [18] = experiment: as §1, with “cells” for “cells in presence of doxorubicin”; assay type: functional, organism-based; settings: time 16.0 day
E.G7-OVA [19] = experiment: In vivo antitumor activity against mouse E.G7-OVA T cell lymphoma subcutaneously injected in syngeneic C57/BL6 mouse model assessed as tumor growth inhibition at 50 mg/kg, ip measured after 14 days; assay type: functional; settings: 336 h, time 14 day, read-out: TGI
E.G7-OVA [20] = experiment: In vivo antitumor activity against mouse E.G7-OVA T cell lymphoma subcutaneously injected in syngeneic C57/BL6 mouse model assessed as tumor growth inhibition in presence of doxorubicin at 1 mg/kg, iv qd (tail vein) measured after 16 days; assay type: functional; settings: 384 h, time 16 day, read-out: TGI
[21] = Toxicity in C57/BL6 mouse subcutaneously injected with mouse E.G7-OVA T cells assessed as change in body weight at 1 mg/kg, iv qd treated for 16 days; assay type: organism-based, T-cell; settings: in vivo, 384 h, time 16 day
E.G7-OVA [22] = experiment: In vivo antitumor activity against mouse E.G7-OVA T cell lymphoma subcutaneously injected in syngeneic C57/BL6 mouse model assessed as tumor growth inhibition at 1 mg/kg, iv qd (tail vein) measured after 16 days; assay type: functional; settings: 384 h, time 16 day, read-out: TGI
E.G7-OVA [23] = experiment: In vivo antitumor activity against mouse E.G7-OVA T cell lymphoma subcutaneously injected in syngeneic C57/BL6 mouse model assessed as tumor growth inhibition in presence of KG035 at 50 mg/kg, ip measured after 14 days; assay type: functional; settings: 336 h, time 14 day, read-out: TGI

With `O=C(O)C(Cc1ccc(F)cc1)(OCc1n[nH]c2cc(-n3nnc4c(F)cc(Br)cc43)ccc12)C(=O)O` the IC50 [1] was 400 nM and the IC50 [2] was 540 nM.
In the case of `[2H]C([2H])(OC(Cc1ccccc1)(C(=O)O)C(=O)O)c1n[nH]c2cc(-n3nnc4c(F)cc(Cl)cc43)ccc12`, the IC50 [1] is reported as 100 nM, the Cmax [3] is reported as 68.6 ng/mL and the CL/F [4] is reported as 1820 mL/min/kg. For the same compound, the Tmax [5] was 4.8 min, the half-life [6] was 2.5 h and the AUC(0-t) [7] was 8740 ng·h/mL. For the same compound, the Tmax [8] was 0.3 h, the clearance [9] was 1.93 mL/min/kg and the AUC(0-t) [10] was 99.5 ng·h/mL. It also gave a half-life [11] of 2.1 h and a Cmax [12] of 19100 ng/mL.
In the case of `O=C(O)C(Cc1ccccc1)(OCc1n[nH]c2cc(-n3nnc4c(F)cc(NCc5ccccc5)cc43)ccc12)C(=O)O`, the IC50 [1] is reported as 550 nM and the IC50 [2] is reported as 330 nM.
`CCOC(=O)C(Cc1ccccc1)(OCc1n[nH]c2cc(-n3nnc4c(F)cc(Br)cc43)ccc12)C(=O)O` (stereo not given) gave an IC50 [1] of 7100 nM and an IC50 [2] greater than 20000 nM.
`CC(C)OCc1cc(F)c2nnn(-c3ccc4c(COC(Cc5ccccc5)(C(=O)O)C(=O)O)n[nH]c4c3)c2c1` showed an IC50 [1] of 1770 nM and an IC50 [2] of 1550 nM.
`O=C(O)C(Cc1ccccc1)(OCc1n[nH]c2cc(-n3nnc4c(F)cc(NCc5ccccc5C5CC5)cc43)ccc12)C(=O)O` showed an IC50 [1] of 620 nM and an IC50 [2] of 700 nM.
`O=C(O)C(Cc1ccccc1)(OCc1n[nH]c2cc(-n3nnc4c(F)cc(C5CC5)cc43)ccc12)C(=O)O` showed an IC50 [1] of 1000 nM and an IC50 [2] of 1430 nM.
`Cc1cc(F)c2nnn(-c3ccc4c(COC(Cc5ccccc5)(C(=O)O)C(=O)O)n[nH]c4c3)c2c1` gave an IC50 [1] of 1520 nM and an IC50 [2] of 1100 nM.
With `COc1cccc2c1C(=O)c1c(O)c3c(c(O)c1C2=O)C[C@@](O)(C(=O)CO)C[C@@H]3O[C@H]1C[C@H](N)[C@H](O)[C@H](C)O1` [DOXORUBICIN] the inhibition in vivo at 2.5 mg/kg (E.G7-OVA [13]) was 34.7%.
`O=C(O)C(Cc1ccccc1)(OCc1n[nH]c2cc(-n3nnc4c(F)cc(Cl)cc43)ccc12)C(=O)O` showed an IC50 [1] of 90 nM, an IC50 [2] of 130 nM and a half-life [14] of 2.1 h.
With `O=C(O)C(OCc1n[nH]c2cc(-n3nnc4c(F)cc(Br)cc43)ccc12)C(=O)O` the IC50 [1] was 3400 nM and the IC50 [2] was 8700 nM.
In the case of `Cc1cccc(C)c1CC(OCc1n[nH]c2cc(-n3nnc4c(F)cc(Br)cc43)ccc12)(C(=O)O)C(=O)O`, the IC50 [1] is reported as 1030 nM and the IC50 [2] is reported as 590 nM.
Work on `CC(=O)Nc1nc(CC(OCc2n[nH]c3cc(-n4nnc5c(F)cc(Br)cc54)ccc23)(C(=O)O)C(=O)O)cs1` yielded an IC50 [1] of 630 nM and an IC50 [2] of 530 nM.
`Fc1cc(Br)cc2c1nnn2-c1ccc2cn[nH]c2c1` showed an IC50 [1] greater than 20000 nM and an IC50 [2] greater than 20000 nM.
For `O=C(O)C(Cc1ccccc1F)(OCc1n[nH]c2cc(-n3nnc4c(F)cc(Br)cc43)ccc12)C(=O)O`, the IC50 [1] was 130 nM and the IC50 [2] was 200 nM.
In the case of `O=C(O)C(Cc1ccccc1)(OCc1n[nH]c2cc(-n3nnc4c(F)cc(Br)cc43)ccc12)C(=O)O`, the Activity (E.G7-OVA [15]) is reported as “Active”, the IC50 [1] is reported as 40 nM and the IC50 [2] is reported as 60 nM. For the same compound, the Activity (E.G7-OVA [16]) was “Active”, the Activity (E.G7-OVA [17]) was “Active” and the Cmax [3] was 124 ng/mL. For the same compound, the CL/F [4] was 1210 mL/min/kg, the Activity (E.G7-OVA [18]) was “Active” and the Tmax [5] was 4.8 min. It also gave a half-life [6] of 1 h, an AUC(0-t) [7] of 7220 ng·h/mL and a Tmax [8] of 0.5 h. It also gave a clearance [9] of 2.41 mL/min/kg, an AUC(0-t) [10] of 144 ng·h/mL and an inhibition in vivo at 50 mg/kg (E.G7-OVA [19]) of 41.1%. The half-life [11] was 1.2 h, the inhibition in vivo at 1 mg/kg (E.G7-OVA [20]) was 44.2% and the Activity [21] was “Non-Toxic”. It also gave an inhibition in vivo at 1 mg/kg (E.G7-OVA [22]) of 12.5%, a Cmax [12] of 14500 ng/mL and an inhibition in vivo at 50 mg/kg (E.G7-OVA [23]) of 47.5%.
Work on `O=C(O)C(Cc1ccccc1)(OCc1n[nH]c2cc(-n3nnc4c(F)cc(NC5CCCC5)cc43)ccc12)C(=O)O` yielded an IC50 [1] of 560 nM and an IC50 [2] of 490 nM.
Work on `O=C(O)C(Cc1cn[nH]c1)(OCc1n[nH]c2cc(-n3nnc4c(F)cc(Br)cc43)ccc12)C(=O)O` yielded an IC50 [1] of 180 nM and an IC50 [2] of 190 nM.
`C=Cc1cc(F)c2nnn(-c3ccc4c(COC(Cc5ccccc5)(C(=O)O)C(=O)O)n[nH]c4c3)c2c1` showed an IC50 [1] of 950 nM and an IC50 [2] of 900 nM.
Work on `O=C(O)C(Cc1ccc(C(F)(F)F)cc1)(OCc1n[nH]c2cc(-n3nnc4c(F)cc(Br)cc43)ccc12)C(=O)O` yielded an IC50 [1] of 320 nM and an IC50 [2] of 2070 nM.
`O=C(O)C(Cc1ccc(C(F)(F)F)o1)(OCc1n[nH]c2cc(-n3nnc4c(F)cc(Br)cc43)ccc12)C(=O)O` showed an IC50 [1] of 230 nM and an IC50 [2] of 890 nM.
In the case of `C[C@H](Nc1cc(Cl)nc2c1cnn2[C@@H]1O[C@H](COP(=O)(O)CP(=O)(O)O)[C@@H](O)[C@H]1O)c1ccccc1F` [QUEMLICLUSTAT], the IC50 [1] is reported as 1 nM and the IC50 [2] is reported as 1 nM.
With `CC(C)(C#N)c1ccc(CC(OCc2n[nH]c3cc(-n4nnc5c(F)cc(Br)cc54)ccc23)(C(=O)O)C(=O)O)cc1` the IC50 [1] was 380 nM and the IC50 [2] was 690 nM.
In the case of `Cc1nnc(-c2c[nH]c(=O)[nH]c2=O)cc1[C@H]1C[C@@H]1C(C)C` [LY-3475070], the IC50 [1] is reported as 40 nM and the IC50 [2] is reported as 170 nM.
With `Nc1cc(F)c2nnn(-c3ccc4c(COC(Cc5ccccc5)(C(=O)O)C(=O)O)n[nH]c4c3)c2c1` the IC50 [1] was 280 nM and the IC50 [2] was 200 nM.
Work on `O=C(O)C(Cc1ccccc1)(OCc1n[nH]c2cc(-n3nnc4c(F)cc(C5CCC5)cc43)ccc12)C(=O)O` yielded an IC50 [1] of 620 nM and an IC50 [2] of 1420 nM.
Compound `Cn1cc(CC(OCc2n[nH]c3cc(-n4nnc5c(F)cc(Br)cc54)ccc23)(C(=O)O)C(=O)O)c(C(F)(F)F)n1` has an IC50 [1] of 610 nM and an IC50 [2] of 1030 nM.
For `Cc1noc(C)c1CC(OCc1n[nH]c2cc(-n3nnc4c(F)cc(Br)cc43)ccc12)(C(=O)O)C(=O)O`, the IC50 [1] was 60 nM and the IC50 [2] was 370 nM.
Work on `O=C(O)C(Cc1ccc(-c2ccccc2)cc1)(OCc1n[nH]c2cc(-n3nnc4c(F)cc(Br)cc43)ccc12)C(=O)O` yielded an IC50 [1] of 1620 nM and an IC50 [2] of 780 nM.
In the case of `Cc1ccccc1CC(OCc1n[nH]c2cc(-n3nnc4c(F)cc(Br)cc43)ccc12)(C(=O)O)C(=O)O`, the IC50 [1] is reported as 340 nM and the IC50 [2] is reported as 35000 nM.
In the case of `O=C(O)C(Cc1ccccc1)(OCc1n[nH]c2cc(-n3nnc4c(F)cc([C@@H](O)CO)cc43)ccc12)C(=O)O`, the IC50 [1] is reported as 1100 nM and the IC50 [2] is reported as 1310 nM.
